The record followed here is patent US20090325936A1, “IMIDAZOPYRIDINE ANALOGS AS CB2 RECEPTOR MODULATORS, USEFUL IN THE TREATMENT OF PAIN, RESPIRATORY AND NON-RESPIRATORY DISEASES” (priority 2006, published 2009).

The target in one experiment is human CB1 (Homo sapiens, UniProt P21554). Description: Cyclic AMP assay (HTRF), CHO cells expressing human CB1. The experiment is classed as cell-based. On the procedure:
(§1) Chinese Hamster Ovary cells (CHO) expressing human CB1 or human CB2 (3.3×10^5 cells/ml) were preincubated for 15 min at room temperature with tested agonist and 3-isobutyl-1-methylxanthine (IBMX; 200 μM) in phosphate buffered saline containing 1 mg/ml BSA (assay buffer) followed by 30 min incubation with forskolin in a total volume of 10 μl. The optimal forskolin concentration for each cell line was established in a separate experiment and adjusted to stimulate 70% of maximal cAMP response. cAMP content was measured using an HTRF assay (CisBio) according to the manufacturer's two step protocol.
Background: In TR-FRET formats the signal depends on donor and acceptor labels being close together.

The target of another experiment is human CB2 (Homo sapiens, UniProt P34972). Description: Cyclic AMP assay (HTRF), CHO cells expressing human CB2. The experiment is classed as cell-based. The note with it: for Emax: CHO, read-out: CB2 Emax. On the procedure: as §1
Setting [1] is: agonist, forskolin-stimulated cAMP in CHO cells expressing human CB2, text calls the value IP, read-out: CB2 cAMP.

Read-outs that look alike come from different tables or passages of the source. Some results are limits rather than exact numbers.

Chain of human CB1 (P21554 whole entry): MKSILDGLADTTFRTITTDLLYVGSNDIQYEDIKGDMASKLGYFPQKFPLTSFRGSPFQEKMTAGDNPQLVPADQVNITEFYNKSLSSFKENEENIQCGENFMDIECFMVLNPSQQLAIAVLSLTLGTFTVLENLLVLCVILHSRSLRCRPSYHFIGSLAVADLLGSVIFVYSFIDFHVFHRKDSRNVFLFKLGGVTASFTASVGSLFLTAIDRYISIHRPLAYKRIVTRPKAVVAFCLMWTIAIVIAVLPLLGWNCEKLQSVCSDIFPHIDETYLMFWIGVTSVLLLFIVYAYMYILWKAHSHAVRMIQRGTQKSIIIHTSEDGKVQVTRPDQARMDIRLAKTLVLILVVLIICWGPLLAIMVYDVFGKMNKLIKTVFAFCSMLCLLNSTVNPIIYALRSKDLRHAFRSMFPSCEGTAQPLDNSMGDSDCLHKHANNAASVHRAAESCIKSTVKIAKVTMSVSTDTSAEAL
Chain of human CB2 (P34972 whole entry): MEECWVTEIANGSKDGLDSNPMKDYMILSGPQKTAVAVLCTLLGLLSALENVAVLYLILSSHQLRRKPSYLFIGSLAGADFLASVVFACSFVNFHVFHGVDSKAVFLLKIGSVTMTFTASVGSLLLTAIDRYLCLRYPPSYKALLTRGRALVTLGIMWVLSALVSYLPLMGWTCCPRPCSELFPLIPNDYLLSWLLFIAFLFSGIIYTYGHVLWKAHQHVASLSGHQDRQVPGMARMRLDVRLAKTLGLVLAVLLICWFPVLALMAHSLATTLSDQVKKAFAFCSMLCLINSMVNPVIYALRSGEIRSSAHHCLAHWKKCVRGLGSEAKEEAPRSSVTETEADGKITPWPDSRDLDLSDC

On to `O=C(NC(C1CC1)C1CC1)c1nc(-c2ccc(F)cc2)c2ccccn12`, for which the EC50 at human CB1 is 405 nM; at human CB2, 2.01 nM. On human CB2, the Emax was 96.4%.

At human CB1, `O=C(NC12CC3CC(CC(C3)C1)C2)c1nc(C2CCCN2)n2ccccc12` (stereo not drawn) had an EC50 of 845 nM. Besides, at human CB2, the EC50 was 5.93 nM and the maximal effect (Emax) is 87.1%.

For the molecule `O=C(c1cccc(Cl)c1)c1nc(-c2ccc(F)cc2)n2ccccc12`, the EC50 on human CB1 was > 17000 nM; at human CB2 (setting [1]), 176 nM. Further, the Emax at human CB2 turned out to be 63.7%.

Regarding `CC(NC(=O)c1nc(N2CCOCC2)n2ccccc12)C(C)(C)C` (stereo not drawn), the EC50 was > 17000 nM at human CB1 and 5.2 nM on human CB2. The maximum response (Emax) on human CB2 was 99.5%.

Regarding `O=C(Nc1ccccc1Cl)c1nc(CN2CCC(O)C2)c2ccccn12` (stereo not drawn), the figures for the EC50 at human CB1 and on human CB2 (setting [1]) were > 17000 nM and 261 nM, respectively. In addition, the maximal response (Emax) at human CB2 turned out to be 69.9%.

On to `CC(NC(=O)c1nc(Cl)c2ccccn12)c1ccccc1Cl` (stereo not drawn), for which the EC50 at human CB1 was > 17000 nM. Also, at human CB2, the EC50 was 18.4 nM and the maximal effect (Emax) was 83.8%.

Turning to `O=C(NC12CC3CC(CC(C3)C1)C2)c1nc(Oc2cccc(F)c2)n2ccccc12`, the EC50 turned out to be 140 nM at human CB1 and 1.92 nM on human CB2. At human CB2, the Emax turned out to be 91.5%.

Molecule `O=C(c1ccc2ccccc2c1)c1nc(CN2CCOCC2)c2ccccn12` returned an EC50 on human CB1 of 878 nM. At human CB2, the EC50 is 2.28 nM and the Emax turned out to be 76.7%.

As to `O=C(NCC1CCOCC1)c1nc(-c2cccnc2)n2ccccc12`, the EC50 on human CB1 is > 17000 nM; on human CB2 (setting [1]) it was 6430 nM. In addition, at human CB2, the Emax was found to be 74.7%.

`O=C(Nc1cccc2cnccc12)c1nc(C(=O)N2CCC(F)CC2)n2ccccc12`: the EC50 at human CB1 turned out to be 2150 nM; at human CB2 it was 23.5 nM. Besides, the Emax at human CB2 turned out to be 79.5%.

`O=C(NC12CC3CC(CC(C3)C1)C2)c1nc(C(O)c2cccnc2)n2ccccc12` (stereo not drawn): on human CB1, the EC50 was > 17000 nM. Further, at human CB2, the EC50 is 46.2 nM and the Emax stood at 80.8%.

Molecule `O=C(NC1(c2ccccc2)CC1)c1nc(-c2cccc(F)c2)n2ccccc12` gave an EC50 on human CB1 of 544 nM. Moreover, at human CB2, the EC50 is 62 nM and the maximal response (Emax) is 69.8%.

A word on the Emax: it is the maximal effect, on the per cent scale that the assay sets.
